Measured values as given in US11759495B2, “Upregulation of therapeutic T regulatory cells and suppression of suicidal ideations in response to inflammation by administration of nutraceutical compositions alone or combined with minocycline” (Therapeutic Solutions International, Inc., priority 2020, dated 2023).
Like-named read-outs stand apart in the source and are kept apart here.

Experiments:
[1] = system: LPS-challenged macrophages; conditions: 0 to 50 μM, 6 h pre-incubation, LPS 24 h; cited from earlier work
[2] = system: primary peritoneal macrophages; conditions: cited from earlier work
LPS-induced ARDS [3] = conditions: cited from earlier work
[4] = system: sepsis induction with live Escherichia coli / LPS O111:B4; conditions: cited from earlier work; for concentration of IL-1α: controls 1187.0±278.64
[5] = system: lipopolysaccharide-induced inflammatory reactions; conditions: cited from earlier work
[6] = system: lethal endotoxemia / lethal sepsis; conditions: cited from earlier work
polymicrobial sepsis [7] = conditions: 10 mg/kg intraperitoneally at 1 and 6 h after CL2P and every 12 h; cited from earlier work
ulcerative colitis (UC) = conditions: cited from earlier work
LPS-induced ARDS [8] = conditions: cited from earlier work; remark: listed apart in the source
[9] = system: myocardial ischemia and reperfusion; conditions: cited from earlier work
iNOS = conditions: cited from earlier work
polymicrobial sepsis [10] = conditions: 10 mg/kg intraperitoneally, 72 h after CL2P; cited from earlier work
macrophage foam cells = conditions: cited from earlier work
NK cell = test: Nanostilbene in cancer patients: NK cell activity and interferon gamma; format: in vivo, human; conditions: administered in the form of nanostilbene
Source text: Additionally, pterostilbene has shown to inhibit inflammatory cytokines associated with ARDS.

[11] = system: inflammatory cytokines associated with ARDS; conditions: cited from earlier work
[12] = rat, in vivo; cited from earlier work
[13] = 10 mg/kg intravenously then 10 mg/kg/h infusion

C[S+]([O-])CCCCN=C=S (stereo not shown) [sulforaphane, 1-isothiocyanato-4-(methylsulfinyl)-butane]
direct reaction with cytokines and NO [1]: neither directly reacted with cytokines, nor with NO
expression of NO and cytokines [1]: able to prevent
HO-1 expression ([2]; LPS-stimulated Nrf2 (+/+) macrophages): significantly augmented
LPS-stimulated mRNA expression, protein expression and production of TNF-alpha, IL-1beta, COX-2 and iNOS ([2]; Nrf2 (+/+) macrophages, pretreatment): potently inhibited
anti-inflammatory effect ([2]; Nrf2 (-/-) macrophages): attenuated
serum levels of interleukin-6 (IL-6) (LPS-induced ARDS [3]; 50 mg/kg, ELISA): significantly decreased
serum levels of tumor necrosis factor-α (TNF-α) (LPS-induced ARDS [3]; 50 mg/kg, ELISA): significantly decreased
lactate dehydrogenase (LDH) activity (LPS-induced ARDS [3]; 50 mg/kg, LPS 5 mg/kg 3 days later): significantly decreased
cyclooxygenase-2 (COX-2) protein expression (LPS-induced ARDS [3]; 50 mg/kg, western blot): significantly inhibited
matrix metalloproteinase-9 (MMP-9) protein expression (LPS-induced ARDS [3]; 50 mg/kg, western blot): significantly inhibited
inducible nitric oxide synthase (iNOS) activity (LPS-induced ARDS [3]; 50 mg/kg): significantly inhibited
nuclear factor-KB protein expression (LPS-induced ARDS [3]; 50 mg/kg): significantly decreased
prostaglandin E2 (PGE2) production (LPS-induced ARDS [3]; 50 mg/kg): significantly inhibited
wet-to-dry ratio of the lungs (LPS-induced ARDS [3]; 50 mg/kg): significantly decreased
Nrf2/antioxidant response element (ARE) pathway (LPS-induced ARDS [3]; pre-treatment): activated

CC1=CC(=O)C(C(C)C)=CC1=O [thymoquinone]
concentration of IL-1α ([4]; 0.75 mg/kg dose): 310.8 ± 70.93 pg/mL
IL-10 levels ([4]; 0.75 mg/kg, controls 5505.2±333.96): 2885.0 ± 553.98 pg/mL
concentration of IL-1α ([4]; 1 mg/kg group): 428.3 ± 71.32 pg/mL
levels of IL-2 ([4]; P=0.0851): relatively lower levels
levels of TNF-α ([4]; P=0.1817): relatively lower levels
mortality reduction ([4]; mice, thymoquinone intraperitoneal): 80-90%
renal and hepatic biomarker profiles ([4]; mouse, in vivo): improved
concentration of nitric oxide [5]: reduced significantly
lipopolysaccharide-induced inflammatory reactions [5]: suppressed effectively

epigallocatechin-3-gallate [EGCG]
rescue from lethal sepsis ([6]; first dose 24 hours after cecal ligation and puncture): rescued
protection against lethal endotoxemia ([6]; intraperitoneal): protected
hypotension (mean arterial blood pressure) (polymicrobial sepsis [7]): significantly improved
colonic tissue erosion (ulcerative colitis (UC); 50 and 100 mg/kg/day): attenuation
HIF-1α and STAT3 protein expression in the colon (ulcerative colitis (UC); mouse, in vivo): decreasing
plasma levels of IL-10 and TGF-β1 (ulcerative colitis (UC); mouse, in vivo): increasing
release of IL-6 and IL-17 (ulcerative colitis (UC); plasma): reduce
LPS-induced ARDS (LPS-induced ARDS [8]; 10 mg/kg ip 1 h before LPS 10 mg/kg ip): attenuated
expression of IκB-α (LPS-induced ARDS [8]; 10 mg/kg ip): increased
expression of TLR-4, MyD88, TRIF, and p-p65 in the lung tissue (LPS-induced ARDS [8]; 10 mg/kg ip): alleviated
expression of TNF-α, IL-1f and IL-6 in the lung, serum, and bronchoalveolar lavage fluid (LPS-induced ARDS [8]; 10 mg/kg ip): significantly decreased
expression of p65 (LPS-induced ARDS [8]; 10 mg/kg ip): had no influence
myeloperoxidase activity [9, 13]: reduced
myocardial damage [9, 13]: reduced
nuclear factor-kB and activator protein-1 DNA binding ([9]; rat, in vivo): reduction
plasma IL-6 levels ([9]; rat, in vivo): decreased
plasma creatine phosphokinase levels ([9]; rat, in vivo): decreased
NO production (iNOS; cells cotreated with EGCG and LPS): Inhibition
130-kDa protein and 4.5-kb mRNA levels of iNOS (iNOS): significantly reduced
disappearance of inhibitor kappaB from cytosolic fraction (iNOS): blocked
activation of nuclear factor-kappaB (iNOS; electrophoretic mobility shift assay): blocked
survival (polymicrobial sepsis [10]): significantly improved
TNF-α-induced nuclear factor-κB (NF-κB) activity (macrophage foam cells): inhibition
TNF-α-induced downregulation of ABCA1 and decrease in cholesterol efflux to apoA1 (macrophage foam cells; pretreatment): attenuated

trans-3,5-dimethoxy-4-hydroxystilbene [pterostilbene]
NK cell activity (NK cell): increased NK cell activity
interferon gamma production (NK cell): increased
interleukin-1, interleukin-6, interleukin-8 and TNF-alpha [11]: inhibition
bioavailability [12]: 80%
